Data published in patent EP0203736A1, “Antiviral compounds” (THE WELLCOME FOUNDATION LIMITED, priority 1985, dated 1986).

Test system: herpes simplex
Experiment: In vivo potency against herpes simplex infection in intra-cerebrally infected mice (survival times, MRST)
Set-up: species or system CD 1 mice
Details: for MRST: mean reciprocal survival time; for MRST / Survival Times / survivors: 50 mg/kg twice daily for 4.5 days; for MRST / Survival Times: recorded over 14 days; for Survival Times / survivors: 10 animals; for Survival Times: figures = number of animals that died (on the day in parentheses); for survivors: 14 days, 1 mouse died within 24 hours of infection
Experimental: The compounds of Examples 1 and 2 were tested in vivo to determine their potency in vivo against herpes simplex infections. The compounds were tested in comparison with the 6-deoxy analogue of the compound of Example 1, namely 9-(3,4-dihydroxybutyI) guanine (DHBG). The following is description of the testing.
The compounds were tested in CD 1 mice infected with herpes simplex ICI cell culture stock having a titre of 1 x 10^5 plaque forming units (pfu)/ml and administered to the mice in a dose of 0.025ml by the intra-cerebral route.
The test compounds were prepared as aqueous suspensions or solutions, each compound being administered at a dose of 50 mg/kg in a volume of 0.1 ml, by either the oral or sub-cutaneous (s.c.) route, to a treatment group of animals. Each group contained 10 animals for each compound and for each route of administration.
Treatment of the animals commenced 2-3 hours after infection and continued twice daily for 4.5 days.
A group of 13 animals which were infected but untreated served as controls.
Survival times for the test animals were recorded over 14 days and expressed as mean reciprocol survival times (MRST).
The results shown in the following table were obtained in which the figures in the column headed "Survival Times" indicate the number of animals that died on the day indicated in parentheses.

Compound	MRST (oral)	MRST (s.c.)	Survival Times (oral)	Survival Times (s.c.)	survivors (oral)	survivors (s.c.)	antiviral effect in vivo against HSV (summary statement, particularly in comparison with DHBG)
Nc1nc2c(ncn2CCC(O)CO)c(=O)[nH]1 (stereo not drawn) [DHBG, 9-(3,4-dihydroxybutyI) guanine, reference compound]	0.18	0.155	1(4.5), 3(5), 5(6), 1(7)	1(5), 3(6), 5(7), 1(7.5)			
Nc1ncc2ncn(CCC(O)CO)c2n1 (stereo not drawn) [Example 1, 2-Amino-9-(3,4-dihydroxybutyl)-9H-purine]	0.154	0.160	1(5), 4(6), 3(7), 1(7.5), 1(9)	7(6), 3(7)			
Nc1ncc2ncn(COCC(O)CO)c2n1 (stereo not drawn) [Example 2]	0.059	0.054	1(6), 1(7), 1(8), 1(10.5)	3(8), 1(9)	5	5	potent antiviral effect
